Data as given in publication PMC7464537, “Jaceidin Flavonoid Isolated from Chiliadenus montanus Attenuates Tumor Progression in Mice via VEGF Inhibition: In Vivo and In Silico Studies” (Plants, 2020).

What was measured:
[1] = system: human melanocyte (normal cell line) (HFB-4); test: SRB cytotoxicity assay, normal cell line; assay type: cell-based; details: 48 h incubation, triplicate, ±SD
Protocol: (§1) The cytotoxic activity of the isolated compounds was measured in vitro against a human liver cancer cell line (HEPG2), a human breast cancer cell line (MCF-7) and a human melanocyte (normal cell line) (HFB-4) in comparison to Doxorubicin, using sulforhodamine B (SRB) assay. Human tumor cell lines (MCF-7, HepG2) used in this study were obtained from the American Type Culture collection (ATCC, Manassas, VA, USA). The tumor cell lines were maintained at the National Cancer Institute, Cairo, Egypt, by serial sub culturing. Cells were seeded in 96-well microliter plates at initial concentration of (3 × 10^3 cell/well) in a fresh medium and left for 24 h to attach to the plates before treatment of the tested compounds. Tested compounds were dissolved in DMSO and diluted with saline to the appropriate volume. After 24 h, cells were incubated with the appropriate concentration ranges of drugs (0, 12.5, 25, 50, 100 µg/mL), the wells were diluted to 150 µL with fresh medium and incubation was continued for 48 h at 37 °C. Control cells were treated with vehicle alone. Three wells were used for each drug concentration. After 48 h incubation, the cells were fixed with 50 µL of cold 10% trichloroacetic acid for 1 h at 4 °C, washed 5 times with distilled water using (Automatic Washer Tecan, Heidelberg, Germany) and then stained for 30 min at room temperature with 50 µL 0.4% SRB dissolved in 1% acetic acid. The wells were then washed 4 times with 1% acetic acid. The plates were air dried and the dye was solubilized with 100 µL/well 10 mM tris base (pH = 10.5). The Optical density (O.D.) of each well was measured spectrophotometrically at 570 nm with an ELISA microplate reader (sunrise Tecan reader, Germany). The percentage of cell survival was calculated as follows:(1) Surviving fraction=O.D.(treated cells)/O.D.(control cells)
(§2) The relation between surviving fraction and compound concentration was plotted to get the survival curve for tumor cell line after the specified time.

[2] = system: breast cancer cell line (MCF-7); test: SRB cytotoxicity assay, breast cancer cell line; assay type: cell-based; details: Homo sapiens, MCF7, 48 h incubation, triplicate, ±SD
Protocol: as §1, §2

[3] = system: liver cancer cell line (HepG2); test: SRB cytotoxicity assay, liver cancer cell line; assay type: cell-based; details: Homo sapiens, 48 h incubation, triplicate, ±SD
Protocol: as §1, §2

[4] = system: vascular endothelial growth factor B (VEGF-B); test: ELISA of serum VEGF level in EAC-bearing mice; assay type: in vivo, female Swiss albino mice; details: extract 200 mg/kg or jaceidin 50 mg/kg three times weekly
Protocol: (§3) Groups 1: mice treated with saline (5 mL/kg). All therapies continued for 21 days. Group 2: mice treated with C. montanus extract 200 mg/kg three times weekly. Group 3: mice treated with Jaceidin 50 mg/kg three times weekly.
(§4) One day after the end of the experiment (day 21), mice were subjected to light ether anesthesia and sacrificed by cervical dislocation; blood samples were collected by cardiac puncture. Blood samples were maintained at room temperature for 30 min and centrifuged at 12,000× g for 10 min. Then, sera were separated and stored at −20 °C until used. An ELISA kit (Sun Red Biotechnology Company, Shanghai, China) was employed for estimating serum VEGF level according to the manufacturer’s protocol. The color intensity was measured at 450 nm using an automated ELISA reader (Europe S.A., Belgium). Tumor was dissected into two halves; the first half was kept at −20 °C to be used in estimating MDA and GSH levels. The second half was cut into small pieces, then fixed in 10% phosphate-buffered formalin for histopathological examination.

[5] = system: Ehrlich's ascites carcinoma (EAC) solid tumors; test: In vivo antitumor activity: tumor weight and histopathology of EAC solid tumors; design: species or system female Swiss albino mice; details: extract 200 mg/kg or jaceidin 50 mg/kg three times weekly
From the text: Female Swiss albino mice with original body weight of 20–26 g and age of 8–10 weeks was used in the current experiment and fixed housing conditions were maintained at a normal dark/light cycle. Mice were housed in groups of six in polyethylene cages where food and water were provided ad libitum. The Research Ethics Committee at the Faculty of Pharmacy, Suez Canal University (license number 201809RA1), approved the study of protocol. Ehrlich’s Ascites Carcinoma is commonly employed as a solid form and easy to grow in suspension, when injected in the peritoneal cavity of female mice. Mice carrying the EAC cell line were obtained from the Department of Tumor Biology at the National Cancer Institute (Cairo, Egypt). The viability of EAC cells was ensured employing Trypan blue dye exclusion method. Then, EAC cells suspension was prepared in sterile saline solution to get a final working suspension; each 0.1 mL of which contained 2.5 million of EAC cells. At the beginning of the experiment, mice were shaved at their back, and inoculated with 0.1 mL of the EAC suspension.
Seven days after inoculation with the tumor cells in all female mice, mice were randomly divided into three groups, ten mice in each. The different treatments were started as follows;
as §3, §4
After fixation, samples were dehydrated in ascending grades of ethyl alcohol, cleared in xylol, embedded in paraffin wax, and then subjected to routine histopathological procedures. Sectioning was done at 5–7 µm thick followed by staining with Hematoxylin and Eosin (H&E). Digital imaging of representative areas was captured using image capture engine software (AMT V600.259) which attached to Olympus CX 41biocular microscope. Histopathological analysis of the digital images of solid tumor was performed by quantities the mitotic figures and tumor giant cells. For counting, ten sections from each experimental group were analyzed at scale bar 20 µm by using image J software that was developed by the National Institute of Health (Betheda, MD, USA). Histopathological examinations were evaluated blindly.

[6] = system: GSH and MDA levels in tumor tissues; test: ELISA of GSH and MDA levels in tumor homogenates; assay type: in vivo, female Swiss albino mice; details: extract 200 mg/kg or jaceidin 50 mg/kg three times weekly
Protocol: as §3, §4
Using a frozen sample, a part of tumor was weighted and homogenized as 10% (w/v) in phosphate-buffered saline using a Teflon homogenizer (Glass col homogenizer system, Vernon Hills, IL, USA). Homogenates were then centrifuged at 15,000× g for 10 min at 4 °C. After centrifugation, the supernatants were collected into 2 dry tubes and kept at −80 °C. The levels of MDA and GSH were determined in the tumor homogenates of […] using ELISA kits for MDA (Catalog No. MBS741034) and GSH (Catalogue Number: MBS026635) according to the manufacturer’s instructions.

[7] = EAC solid tumors in female mice, 21 days

## COc1cccc2c1C(=O)c1c(O)c3c(c(O)c1C2=O)C[C@@](O)(C(=O)CO)C[C@@H]3O[C@H]1C[C@H](N)[C@H](O)[C@H](C)O1 [Doxorubicin, reference compound]
[1]
  IC50: 14.7 ± 0.5 µM
[2]
  IC50: 4 ± 0.25 µM
[3]
  IC50: 4.58 ± 0.47 µM

## C=C1CCC[C@]2(C)CCC(C(C)(C)O)C[C@@]12OO (stereo partly drawn) [Compound 2, 5α-hydroperoxy-β-eudesmol]
[1]
  IC50: > 200 µM
[2]
  IC50: 41.5 ± 0.55 µM
[3]
  IC50: 39.7 ± 0.65 µM

## CC(C)(O)[C@@]1(O)CC[C@]2(C)C(C1)[C@@](C)(O)CC[C@H]2O (stereo partly drawn) [Compound 6, 1β,4β,7β, 11-tetrahydroxyeudesmane]
[1]
  IC50: > 200 µM
[2]
  IC50: 33.2 ± 0.35 µM
[3]
  IC50: 35.1 ± 0.6 µM

## C=C(C)[C@]1(O)CC[C@]2(C)[C@H](O)CC[C@](C)(O)[C@@H]2C1 [Compound 5, Eudesm-11,13-ene-1β,4β,7α-triol]
[1]
  IC50: > 200 µM
[2]
  IC50: 38.5 ± 0.55 µM
[3]
  IC50: 33.4 ± 0.49 µM

## COc1ccc(-c2oc3cc(O)cc(O)c3c(=O)c2OC)cc1OC [Compound 3, 5,7-dihydroxy-3,3’,4’-trimethoxyflavone]
[1]
  IC50: > 200 µM
[2]
  IC50: 10.7 ± 0.4 µM
[3]
  IC50: 30.5 ± 0.61 µM

## COc1cc(-c2oc3cc(O)c(OC)c(O)c3c(=O)c2OC)ccc1O [Compound 4, 5,7,4’-trihydroxy-3,6,3’-trimethoxyflavone]
[4]
  serum VEGF decrease compared to tumor control: 61.7%
[4]; mean ± SD, tumor control 71.46 ± 1.88
  serum VEGF levels: 27.3 ± 2.82
[1]
  IC50: > 200 µM
[5]; [7]
  mean tumor weight: 0.032 g
  tumor weight decrease compared to tumor control: 96.4%
[5]; H&E histopathology, mean ± SD, tumor control 3.46 ± 0.68
  necrosis in the tumor tissues: 1.63 ± 0.68
[5]; H&E histopathology, mean ± SD, tumor control 7.65 ± 2.48
  number of tumor giant cells in the tumor tissues: 1.30 ± 1.08
[5]; H&E histopathology, mean ± SD, tumor control 31.45 ± 5.46
  number of mitotic figures in the tumor tissues: 5.20 ± 2.35
[5]; H&E histopathology
  mitotic figure decrease compared to tumor control: 83.47%
  necrosis decrease compared to tumor control: 53.01%
  tumor giant cell decrease compared to tumor control: 83%
[6]; mean ± SD, tumor control 11.62 ± 1.96
  GSH levels in tumor tissues: 29.25 ± 3.36
[6]; mean ± SD, tumor control 15.18 ± 1.89
  MDA levels in the tumor tissues: 4.25 ± 1.28
[6]; tumor tissues
  GSH increase compared to tumor control: 2.5 folds
  MDA decrease compared to tumor control: 72%
[2]
  IC50: 9.3 ± 0.3 µM
[3]
  IC50: 9.7 ± 0.26 µM

## C=C(C)[C@@H]1CC[C@]2(C)CCC[C@](C)(O)[C@H]2C1 [Compound 1, Intermedeol]
[1]
  IC50: > 200 µM
[2]
  IC50: 45.6 ± 0.5 µM
[3]
  IC50: 48.2 ± 0.3 µM
